In ChEMBL document CHEMBL2074261, “Transcellular transport of organic anions across a double-transfected Madin-Darby canine kidney II cell monolayer expressing both human organic anion-transporting polypeptide (OATP2/SLC21A6) and Multidrug resistance-associated protein 2 (MRP2/ABCC2)” (J Biol Chem, 2002):

Target: Canalicular multispecific organic anion transporter 1/Solute carrier organic anion transporter family member 1B1 (Homo sapiens, UniProt Q92887+Q9Y6L6)
Experiment: TP_TRANSPORTER: transepithelial transport (basal to apical) in MRP2- and OATP-C-expressing MDCKII cells
Type: functional, cell-based
Details: dog, mdck-ii

SMILES | Activity
CC[C@H](C)C(=O)O[C@H]1C[C@H](O)C=C2C=C[C@H](C)[C@H](CC[C@@H](O)C[C@@H](O)CC(=O)O)[C@H]21 [PRAVASTATIN] | substrate [+]
C[C@H](CCC(=O)NCCS(=O)(=O)O)C1CC[C@H]2[C@@H]3CC[C@@H]4C[C@H](OS(=O)(=O)O)CC[C@]4(C)[C@H]3CC[C@]12C (some centres not stated) | substrate [+]
